Measured values reported in US5087573A, “Monoclonal antibody against bone alkaline phosphatase” (University of Kansas, priority 1988, dated 1992).

Target: T1, purified alkaline phosphatase from human osteosarcoma (bone isoenzyme) (Homo sapiens, UniProt P05186)
T1 construct: Human Osteosarcoma obtained from nude mice (nu/nu) was frozen at -70° C. until required; from tissue; host or cells: human osteosarcoma tumour tissue obtained from nude mice (nu/nu); enzyme purified by n-butanol extraction, acetone and ammonium sulfate precipitation, Bio Gel-HT, DEAE Sepharose and Sephacryl S-400
T1 sequence (P05186 18-502 limits assumed): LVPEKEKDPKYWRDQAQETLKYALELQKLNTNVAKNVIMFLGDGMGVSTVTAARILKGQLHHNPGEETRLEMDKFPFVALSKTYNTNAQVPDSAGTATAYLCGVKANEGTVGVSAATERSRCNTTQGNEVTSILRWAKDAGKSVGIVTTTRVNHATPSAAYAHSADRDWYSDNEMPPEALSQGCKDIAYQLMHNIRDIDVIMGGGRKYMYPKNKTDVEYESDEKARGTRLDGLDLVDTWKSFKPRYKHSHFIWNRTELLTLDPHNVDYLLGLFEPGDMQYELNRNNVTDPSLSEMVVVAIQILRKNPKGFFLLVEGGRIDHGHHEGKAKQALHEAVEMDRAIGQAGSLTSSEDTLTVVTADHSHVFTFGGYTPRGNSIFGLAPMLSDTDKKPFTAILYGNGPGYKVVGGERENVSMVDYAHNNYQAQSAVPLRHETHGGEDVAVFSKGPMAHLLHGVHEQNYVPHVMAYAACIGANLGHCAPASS
Assay: Inhibition of alkaline phosphatase by amino acids (release of p-nitrophenol from p-nitrophenylphosphate)
Format: biochemical
Settings: amino acid at 5 mM in the reaction mixture; 4 mM p-nitrophenylphosphate, pH 10.2
Protocol: The enzyme was assayed by measuring the release of p-nitrophenol from p-nitro-phenylphosphate at ambient temperature using a Gilford (model 250) recording spectrophotometer. The assay mixture (0.5 ml) contained 0.3M 2-amino-2-methyl-1-propanol, pH 10.2, 4 mM p-nitrophenylphosphate, 20 ug MgCl2 and 10 ul of diluted enzyme (u=micro). The formation of p-nitrophenol was measured spectrophotometrically at 410 nm. Units represent u moles of p-nitrophenol formed per minute at 22° C.
In order to define more clearly the isoenzyme, inhibition studies using amino acids were applied to the enzyme samples. The assay was carried out in the presence of L-homoarginine or L-phenylalanine at 5 mM concentration in the reaction mixtures respectively.
Based on the sensitivity to heat inactivation and inhibitions by L-homoarginine and L-phenylalanine, the properties of alkaline phosphatase from human osteosarcoma are consistent with those of the bone isoenzyme. It is generally considered in the art that the ALP from normal bone and osteosarcoma are probably identical.

Row | SMILES | inhibition at 5000 µM
1 | N=C(N)NCCCC[C@H](N)C(=O)O [L-homoarginine] | 64%
2 | N[C@@H](Cc1ccccc1)C(=O)O [L-phenylalanine] | 5%
